Numbers after ± are expanded uncertainties.
Assay: xn = mol fraction of the nth substance listed
Details: 101.3 kPa, Liquid; for speed of sound: Sing-around technique in a fixed-path interferometer; for mass density: Vibrating tube method

CCOCCOCCOCC [diethylene glycol diethyl ether] + CCCCO
Details	mass density [kg/m3]	speed of sound [m/s]
293.15 K, x2 = 0.1284	901.3 ± 0.2	1262.2 ± 1.1
293.15 K, x2 = 0.2205	896.11 ± 0.19	1263.3 ± 1.1
293.15 K, x2 = 0.319	889.85 ± 0.17	1264.1 ± 1
293.15 K, x2 = 0.3623	886.86 ± 0.16	1264.3 ± 1
293.15 K, x2 = 0.4157	882.92 ± 0.16	1264.5 ± 1
293.15 K, x2 = 0.4529	879.96 ± 0.15	1264.4 ± 0.9
293.15 K, x2 = 0.4963	876.35 ± 0.15	1264.4 ± 0.9
293.15 K, x2 = 0.5481	871.71 ± 0.14	1264.3 ± 0.9
293.15 K, x2 = 0.6523	861.3 ± 0.13	1263.6 ± 0.8
293.15 K, x2 = 0.7018	855.73 ± 0.13	1263.3 ± 0.8
293.15 K, x2 = 0.7934	844.15 ± 0.12	1262.1 ± 0.8
293.15 K, x2 = 0.8942	829.14 ± 0.12	1260.2 ± 0.7
293.15 K, x2 = 0.9397	821.36 ± 0.12	1258.9 ± 0.7
298.15 K, x2 = 0.1245	896.77 ± 0.2	1242.5 ± 1.1
298.15 K, x2 = 0.2149	891.76 ± 0.19	1243.8 ± 1.1
298.15 K, x2 = 0.3175	885.38 ± 0.17	1244.9 ± 1
298.15 K, x2 = 0.4078	879 ± 0.16	1245.5 ± 1
298.15 K, x2 = 0.4543	875.4 ± 0.15	1245.6 ± 0.9
298.15 K, x2 = 0.5047	871.25 ± 0.15	1245.7 ± 0.9
298.15 K, x2 = 0.5543	866.84 ± 0.14	1245.7 ± 0.9
298.15 K, x2 = 0.6137	861.13 ± 0.14	1245.5 ± 0.9
298.15 K, x2 = 0.6973	852.18 ± 0.13	1245.3 ± 0.8
298.15 K, x2 = 0.7951	840.07 ± 0.12	1244.5 ± 0.8
298.15 K, x2 = 0.8466	832.8 ± 0.12	1243.9 ± 0.8
298.15 K, x2 = 0.9449	816.86 ± 0.12	1241.7 ± 0.7
303.15 K, x2 = 0.0738	894.47 ± 0.22	1223.5 ± 1.1
303.15 K, x2 = 0.1419	890.96 ± 0.2	1224.8 ± 1.1
303.15 K, x2 = 0.218	886.73 ± 0.19	1225.9 ± 1.1
303.15 K, x2 = 0.302	881.57 ± 0.17	1227 ± 1
303.15 K, x2 = 0.3764	876.51 ± 0.16	1227.7 ± 1
303.15 K, x2 = 0.5002	866.9 ± 0.15	1228.3 ± 0.9
303.15 K, x2 = 0.5541	862.16 ± 0.14	1228.4 ± 0.9
303.15 K, x2 = 0.6056	857.29 ± 0.14	1228.5 ± 0.9
303.15 K, x2 = 0.6997	847.32 ± 0.13	1228.4 ± 0.8
303.15 K, x2 = 0.7961	835.44 ± 0.13	1227.9 ± 0.8
303.15 K, x2 = 0.8493	827.96 ± 0.13	1227.4 ± 0.8
303.15 K, x2 = 0.8896	821.8 ± 0.13	1226.8 ± 0.7
303.15 K, x2 = 0.9431	812.86 ± 0.12	1225.8 ± 0.7

CCOCCOCCOCC [diethylene glycol diethyl ether] + CCCCCCCCCCO
Details	mass density [kg/m3]	speed of sound [m/s]
293.15 K, x2 = 0.0632	901.86 ± 0.23	1267.1 ± 1.2
293.15 K, x2 = 0.1084	897.94 ± 0.23	1272.6 ± 1.2
293.15 K, x2 = 0.2052	889.79 ± 0.23	1284.5 ± 1.2
293.15 K, x2 = 0.294	882.49 ± 0.23	1295.5 ± 1.2
293.15 K, x2 = 0.393	874.57 ± 0.23	1308.1 ± 1.2
293.15 K, x2 = 0.4943	866.66 ± 0.23	1321.4 ± 1.2
293.15 K, x2 = 0.543	862.92 ± 0.23	1327.9 ± 1.2
293.15 K, x2 = 0.5932	859.11 ± 0.23	1334.7 ± 1.2
293.15 K, x2 = 0.6872	852.12 ± 0.23	1348.1 ± 1.2
293.15 K, x2 = 0.7863	844.92 ± 0.23	1363 ± 1.2
293.15 K, x2 = 0.8872	837.76 ± 0.23	1378.8 ± 1.2
293.15 K, x2 = 0.9441	833.82 ± 0.23	1388.1 ± 1.2
298.15 K, x2 = 0.0605	897.98 ± 0.23	1247.8 ± 1.2
298.15 K, x2 = 0.111	893.68 ± 0.23	1254.1 ± 1.2
298.15 K, x2 = 0.1588	889.69 ± 0.23	1260.1 ± 1.2
298.15 K, x2 = 0.2062	885.79 ± 0.23	1266.1 ± 1.2
298.15 K, x2 = 0.302	878.08 ± 0.23	1278.3 ± 1.2
298.15 K, x2 = 0.3947	870.77 ± 0.23	1290.4 ± 1.2
298.15 K, x2 = 0.504	862.39 ± 0.23	1305 ± 1.2
298.15 K, x2 = 0.592	855.8 ± 0.23	1317.3 ± 1.2
298.15 K, x2 = 0.6553	851.16 ± 0.23	1326.4 ± 1.2
298.15 K, x2 = 0.7443	844.72 ± 0.23	1339.5 ± 1.2
298.15 K, x2 = 0.7923	841.32 ± 0.23	1347 ± 1.2
298.15 K, x2 = 0.8362	838.23 ± 0.23	1353.8 ± 1.2
298.15 K, x2 = 0.8836	834.93 ± 0.23	1361.4 ± 1.2
298.15 K, x2 = 0.94	831.05 ± 0.23	1370.4 ± 1.2
303.15 K, x2 = 0.0605	893 ± 0.23	1229.6 ± 1.2
303.15 K, x2 = 0.1016	889.54 ± 0.23	1234.8 ± 1.2
303.15 K, x2 = 0.154	885.23 ± 0.23	1241.6 ± 1.2
303.15 K, x2 = 0.2064	880.99 ± 0.23	1248.3 ± 1.2
303.15 K, x2 = 0.2953	873.94 ± 0.23	1260 ± 1.2
303.15 K, x2 = 0.3846	867.02 ± 0.23	1271.7 ± 1.2
303.15 K, x2 = 0.5006	858.29 ± 0.23	1287.6 ± 1.2
303.15 K, x2 = 0.5369	855.6 ± 0.23	1292.7 ± 1.2
303.15 K, x2 = 0.6486	847.46 ± 0.23	1308.7 ± 1.2
303.15 K, x2 = 0.7409	840.9 ± 0.23	1322.6 ± 1.2
303.15 K, x2 = 0.7915	837.36 ± 0.23	1330.4 ± 1.2
303.15 K, x2 = 0.8318	834.56 ± 0.23	1336.7 ± 1.2
303.15 K, x2 = 0.8856	830.89 ± 0.23	1345.4 ± 1.2
303.15 K, x2 = 0.9364	827.44 ± 0.23	1353.5 ± 1.2

CCOCCOCCOCC [diethylene glycol diethyl ether] + CO
Details	mass density [kg/m3]	speed of sound [m/s]
293.15 K, x2 = 0.1141	904.9 ± 0.2	1259.4 ± 1.1
293.15 K, x2 = 0.1553	904.05 ± 0.19	1259.4 ± 1.1
293.15 K, x2 = 0.1987	903.07 ± 0.18	1259.2 ± 1.1
293.15 K, x2 = 0.249	901.79 ± 0.17	1258.6 ± 1
293.15 K, x2 = 0.2972	900.38 ± 0.16	1257.7 ± 1
293.15 K, x2 = 0.3651	898.01 ± 0.15	1255.9 ± 1
293.15 K, x2 = 0.3841	897.27 ± 0.15	1255.2 ± 0.9
293.15 K, x2 = 0.4206	895.72 ± 0.14	1253.7 ± 0.9
293.15 K, x2 = 0.4696	893.32 ± 0.14	1251.3 ± 0.9
293.15 K, x2 = 0.5133	890.89 ± 0.13	1248.6 ± 0.9
293.15 K, x2 = 0.5624	887.61 ± 0.12	1244.7 ± 0.8
293.15 K, x2 = 0.6126	883.69 ± 0.12	1240 ± 0.8
293.15 K, x2 = 0.6545	879.81 ± 0.12	1235.1 ± 0.8
293.15 K, x2 = 0.698	875.07 ± 0.11	1229 ± 0.8
293.15 K, x2 = 0.7575	867.11 ± 0.11	1218.6 ± 0.7
293.15 K, x2 = 0.8037	859.25 ± 0.11	1208.1 ± 0.7
293.15 K, x2 = 0.8469	850.24 ± 0.12	1196 ± 0.7
293.15 K, x2 = 0.9023	835.03 ± 0.12	1175.4 ± 0.7
293.15 K, x2 = 0.9467	818.74 ± 0.13	1153.6 ± 0.7
298.15 K, x2 = 0.1296	900 ± 0.2	1240 ± 1.1
298.15 K, x2 = 0.1589	899.4 ± 0.19	1239.9 ± 1.1
298.15 K, x2 = 0.1917	898.67 ± 0.19	1239.7 ± 1.1
298.15 K, x2 = 0.2627	896.83 ± 0.17	1239 ± 1
298.15 K, x2 = 0.2904	896.02 ± 0.17	1238.5 ± 1
298.15 K, x2 = 0.3505	894.01 ± 0.16	1237.1 ± 1
298.15 K, x2 = 0.3925	892.41 ± 0.15	1235.8 ± 0.9
298.15 K, x2 = 0.4241	891.01 ± 0.14	1234.4 ± 0.9
298.15 K, x2 = 0.4639	889.09 ± 0.14	1232.6 ± 0.9
298.15 K, x2 = 0.5181	886.01 ± 0.13	1229.3 ± 0.9
298.15 K, x2 = 0.5637	882.97 ± 0.13	1225.8 ± 0.8
298.15 K, x2 = 0.6132	879.12 ± 0.12	1221.2 ± 0.8
298.15 K, x2 = 0.6207	878.44 ± 0.12	1220.4 ± 0.8
298.15 K, x2 = 0.6959	870.83 ± 0.11	1210.9 ± 0.8
298.15 K, x2 = 0.7434	864.68 ± 0.11	1203 ± 0.7
298.15 K, x2 = 0.8007	855.37 ± 0.11	1190.8 ± 0.7
298.15 K, x2 = 0.8481	845.46 ± 0.12	1177.7 ± 0.7
298.15 K, x2 = 0.9005	831.08 ± 0.13	1158.6 ± 0.7
298.15 K, x2 = 0.9476	813.97 ± 0.14	1135.9 ± 0.7
303.15 K, x2 = 0.1058	895.27 ± 0.21	1221.5 ± 1.1
303.15 K, x2 = 0.1571	894.27 ± 0.19	1221.5 ± 1.1
303.15 K, x2 = 0.1991	893.31 ± 0.19	1221.4 ± 1.1
303.15 K, x2 = 0.2309	892.58 ± 0.18	1220.9 ± 1
303.15 K, x2 = 0.2886	890.89 ± 0.17	1220.4 ± 1
303.15 K, x2 = 0.3249	889.71 ± 0.16	1219.5 ± 1
303.15 K, x2 = 0.3748	887.88 ± 0.15	1218.2 ± 0.9
303.15 K, x2 = 0.4216	885.91 ± 0.15	1216.5 ± 0.9
303.15 K, x2 = 0.473	883.4 ± 0.14	1214.1 ± 0.9
303.15 K, x2 = 0.5164	880.9 ± 0.13	1211.5 ± 0.9
303.15 K, x2 = 0.5681	877.47 ± 0.13	1207.7 ± 0.8
303.15 K, x2 = 0.6092	874.33 ± 0.12	1204.1 ± 0.8
303.15 K, x2 = 0.6548	870.07 ± 0.12	1199 ± 0.8
303.15 K, x2 = 0.6984	865.35 ± 0.12	1193.3 ± 0.8
303.15 K, x2 = 0.7448	859.28 ± 0.12	1185.6 ± 0.7
303.15 K, x2 = 0.8012	849.99 ± 0.12	1173.9 ± 0.7
303.15 K, x2 = 0.8484	840.19 ± 0.12	1161.1 ± 0.7
303.15 K, x2 = 0.9007	825.94 ± 0.13	1142.6 ± 0.7
303.15 K, x2 = 0.9489	808.25 ± 0.14	1119.6 ± 0.6

— the NIST ThermoML archive (doi:10.1016/j.jct.2012.12.007)
